{"source": "ChEMBL document CHEMBL4342480", "about": "“Design of Dual Inhibitors of Soluble Epoxide Hydrolase and LTA4 Hydrolase” (ACS Med Chem Lett, 2020)", "key": {"[1]": {"molecular_target": "T1, Leukotriene A-4 hydrolase (Homo sapiens, UniProt P09960)", "T1 sequence (P09960 whole entry)": "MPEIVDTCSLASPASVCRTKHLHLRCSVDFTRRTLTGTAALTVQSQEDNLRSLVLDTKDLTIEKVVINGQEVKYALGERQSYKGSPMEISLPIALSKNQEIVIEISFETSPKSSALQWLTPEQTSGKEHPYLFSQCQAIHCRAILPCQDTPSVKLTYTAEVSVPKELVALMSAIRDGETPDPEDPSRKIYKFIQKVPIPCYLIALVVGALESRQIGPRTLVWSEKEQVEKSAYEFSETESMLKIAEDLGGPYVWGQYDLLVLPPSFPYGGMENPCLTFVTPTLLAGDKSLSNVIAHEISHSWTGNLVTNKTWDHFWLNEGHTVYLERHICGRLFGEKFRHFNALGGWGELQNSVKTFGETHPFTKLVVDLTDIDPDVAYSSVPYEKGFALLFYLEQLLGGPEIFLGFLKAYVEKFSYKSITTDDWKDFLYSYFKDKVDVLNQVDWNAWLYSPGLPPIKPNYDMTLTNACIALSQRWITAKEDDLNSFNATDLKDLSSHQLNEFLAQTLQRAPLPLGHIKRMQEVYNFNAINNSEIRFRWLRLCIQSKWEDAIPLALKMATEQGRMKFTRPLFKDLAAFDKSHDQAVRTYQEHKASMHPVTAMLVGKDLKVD", "experiment": "Inhibition of (His)6 tagged human recombinant LTA4H expressed in Escherichia coli BL21(DE3) using non-fluorescent L-arginine-7-amino-4-methylcoumarine as substrate preincubated for 30 mins followed by substrate addition and measured for 30 mins by fluorescence based assay"}, "Macrophage [2]": {"system": "Macrophage", "experiment": "Antiinflammatory activity in Escherichia coli O6:K2:H1-induced human M2 macrophage assessed as change in 18-HEPE level at 1 uM preincubated for 10 mins followed by Escherichia coli O6:K2:H1-stimulation and measured after 180 mins by UPLC-MS/MS analysis relative to control", "format": "functional"}, "Macrophage [3]": {"system": "Macrophage", "experiment": "Antiinflammatory activity in Escherichia coli O6:K2:H1-induced human M2 macrophage assessed as change in 17-HDHA level at 10 uM preincubated for 10 mins followed by Escherichia coli O6:K2:H1-stimulation and measured after 180 mins by UPLC-MS/MS analysis relative to control", "format": "functional"}, "Macrophage [4]": {"system": "Macrophage", "experiment": "Antiinflammatory activity in Escherichia coli O6:K2:H1-induced human M2 macrophage assessed as change in 5.15-dlHETE level at 1 uM preincubated for 10 mins followed by Escherichia coli O6:K2:H1-stimulation and measured after 180 mins by UPLC-MS/MS analysis relative to control", "format": "functional"}, "Macrophage [5]": {"system": "Macrophage", "experiment": "Antiinflammatory activity in Escherichia coli O6:K2:H1-induced human M2 macrophage assessed as change in PGF2alpha level at 1 uM preincubated for 10 mins followed by Escherichia coli O6:K2:H1-stimulation and measured after 180 mins by UPLC-MS/MS analysis relative to control", "format": "functional"}, "Macrophage [6]": {"system": "Macrophage", "experiment": "Antiinflammatory activity in Escherichia coli O6:K2:H1-induced human M1 macrophage assessed as change in 18-HEPE level at 1 uM preincubated for 10 mins followed by Escherichia coli O6:K2:H1-stimulation and measured after 180 mins by UPLC-MS/MS analysis relative to control", "format": "functional"}, "Macrophage [7]": {"system": "Macrophage", "experiment": "Antiinflammatory activity in Escherichia coli O6:K2:H1-induced human M2 macrophage assessed as change in PGF2alpha level at 10 uM preincubated for 10 mins followed by Escherichia coli O6:K2:H1-stimulation and measured after 180 mins by UPLC-MS/MS analysis relative to control", "format": "functional"}, "Macrophage [8]": {"system": "Macrophage", "experiment": "Antiinflammatory activity in Escherichia coli O6:K2:H1-induced human M2 macrophage assessed as change in LTB4 level at 1 uM preincubated for 10 mins followed by Escherichia coli O6:K2:H1-stimulation and measured after 180 mins by UPLC-MS/MS analysis relative to control", "format": "functional"}, "Macrophage [9]": {"system": "Macrophage", "experiment": "Antiinflammatory activity in Escherichia coli O6:K2:H1-induced human M2 macrophage assessed as change in 12-HEPE level at 1 uM preincubated for 10 mins followed by Escherichia coli O6:K2:H1-stimulation and measured after 180 mins by UPLC-MS/MS analysis relative to control", "format": "functional"}, "Macrophage [10]": {"system": "Macrophage", "experiment": "Antiinflammatory activity in Escherichia coli O6:K2:H1-induced human M2 macrophage assessed as change in 12-HETE level at 1 uM preincubated for 10 mins followed by Escherichia coli O6:K2:H1-stimulation and measured after 180 mins by UPLC-MS/MS analysis relative to control", "format": "functional"}, "Macrophage [11]": {"system": "Macrophage", "experiment": "Antiinflammatory activity in Escherichia coli O6:K2:H1-induced human M1 macrophage assessed as change in 7-HDHA level at 10 uM preincubated for 10 mins followed by Escherichia coli O6:K2:H1-stimulation and measured after 180 mins by UPLC-MS/MS analysis relative to control", "format": "functional"}, "Macrophage [12]": {"system": "Macrophage", "experiment": "Antiinflammatory activity in Escherichia coli O6:K2:H1-induced human M1 macrophage assessed as change in 5.15-dlHETE level at 10 uM preincubated for 10 mins followed by Escherichia coli O6:K2:H1-stimulation and measured after 180 mins by UPLC-MS/MS analysis relative to control", "format": "functional"}, "Macrophage [13]": {"system": "Macrophage", "experiment": "Antiinflammatory activity in Escherichia coli O6:K2:H1-induced human M2 macrophage assessed as change in PGE2 level at 1 uM preincubated for 10 mins followed by Escherichia coli O6:K2:H1-stimulation and measured after 180 mins by UPLC-MS/MS analysis relative to control", "format": "functional"}, "Macrophage [14]": {"system": "Macrophage", "experiment": "Antiinflammatory activity in Escherichia coli O6:K2:H1-induced human M2 macrophage assessed as change in 12-HETE level at 10 uM preincubated for 10 mins followed by Escherichia coli O6:K2:H1-stimulation and measured after 180 mins by UPLC-MS/MS analysis relative to control", "format": "functional"}, "Macrophage [15]": {"system": "Macrophage", "experiment": "Antiinflammatory activity in Escherichia coli O6:K2:H1-induced human M2 macrophage assessed as change in 5.15-dlHETE level at 10 uM preincubated for 10 mins followed by Escherichia coli O6:K2:H1-stimulation and measured after 180 mins by UPLC-MS/MS analysis relative to control", "format": "functional"}, "Macrophage [16]": {"system": "Macrophage", "experiment": "Antiinflammatory activity in Escherichia coli O6:K2:H1-induced human M1 macrophage assessed as change in PGE2 level at 10 uM preincubated for 10 mins followed by Escherichia coli O6:K2:H1-stimulation and measured after 180 mins by UPLC-MS/MS analysis relative to control", "format": "functional"}, "Macrophage [17]": {"system": "Macrophage", "experiment": "Antiinflammatory activity in Escherichia coli O6:K2:H1-induced human M1 macrophage assessed as change in 15-HEPE level at 10 uM preincubated for 10 mins followed by Escherichia coli O6:K2:H1-stimulation and measured after 180 mins by UPLC-MS/MS analysis relative to control", "format": "functional"}, "Macrophage [18]": {"system": "Macrophage", "experiment": "Antiinflammatory activity in Escherichia coli O6:K2:H1-induced human M2 macrophage assessed as change in PGD2 level at 10 uM preincubated for 10 mins followed by Escherichia coli O6:K2:H1-stimulation and measured after 180 mins by UPLC-MS/MS analysis relative to control", "format": "functional"}, "Macrophage [19]": {"system": "Macrophage", "experiment": "Antiinflammatory activity in Escherichia coli O6:K2:H1-induced human M2 macrophage assessed as change in LTB4 level at 10 uM preincubated for 10 mins followed by Escherichia coli O6:K2:H1-stimulation and measured after 180 mins by UPLC-MS/MS analysis relative to control", "format": "functional"}}, "note": "pIC50: −log10 of the molar value."}
{"smiles": "O=C(Cc1ccc(Oc2nc3ccccc3s2)cc1F)NCCc1ccc(F)cc1", "values": [{"measurement": "pIC50", "setting": "[1]", "value": 6.70}, {"measurement": "Activity", "setting": "Macrophage [2]", "value": 86, "unit": "%"}, {"measurement": "Activity", "setting": "Macrophage [3]", "value": 135, "unit": "%"}, {"measurement": "Activity", "setting": "Macrophage [4]", "value": 93, "unit": "%"}, {"measurement": "Activity", "setting": "Macrophage [5]", "value": 63, "unit": "%"}, {"measurement": "Activity", "setting": "Macrophage [6]", "value": 74, "unit": "%"}, {"measurement": "Activity", "setting": "Macrophage [7]", "value": 45, "unit": "%"}, {"measurement": "Activity", "setting": "Macrophage [8]", "value": 72, "unit": "%"}, {"measurement": "Activity", "setting": "Macrophage [9]", "value": 78, "unit": "%"}, {"measurement": "Activity", "setting": "Macrophage [10]", "value": 87, "unit": "%"}, {"measurement": "Activity", "setting": "Macrophage [11]", "value": 66, "unit": "%"}, {"measurement": "Activity", "setting": "Macrophage [12]", "value": 97, "unit": "%"}, {"measurement": "Activity", "setting": "Macrophage [13]", "value": 61, "unit": "%"}, {"measurement": "Activity", "setting": "Macrophage [14]", "value": 114, "unit": "%"}, {"measurement": "Activity", "setting": "Macrophage [15]", "value": 101, "unit": "%"}, {"measurement": "Activity", "setting": "Macrophage [16]", "value": 77, "unit": "%"}, {"measurement": "Activity", "setting": "Macrophage [17]", "value": 191, "unit": "%"}, {"measurement": "Activity", "setting": "Macrophage [18]", "value": 64, "unit": "%"}, {"measurement": "Activity", "setting": "Macrophage [19]", "value": 23, "unit": "%"}]}
